Test results from PMC12657942, “Measurement and modeling of rizatriptan in supercritical CO2 for pharmaceutical processing” (Scientific Reports, 2025).
Converted amounts (≈) assume the structure as drawn.

What was measured:
[1] = Solubility of rizatriptan in supercritical CO2, static gravimetric method; assay type: physicochemical; conditions: read-out: Solubility in supercritical carbon dioxide
Experimental: (§1) A specialized high-pressure system is employed to measure the solubility of rizatriptan using gravimetric techniques in a supercritical CO2[6]. A 200 mL vessel capable of withstanding pressures up to 35 MPa and temperatures up to 423 K is prepared with leak-free seals, valves, and fittings. All valves and connectors were 1/8 inch in size. The system’s pressure and temperature sensors are calibrated for accuracy. Next, 2000 mg of rizatriptan powder is weighed precisely using an analytical balance with 0.01 mg of sensitivity. The powder is then compacted into 5-mm diameter tablets to ensure uniformity and structural integrity. The tablets are placed in a basket inside the vessel to maximize their exposure to SC-CO2. CO2 is introduced gradually using a high-precision pump (SC-1000, SUPEREX), with the pressure increased in 0.05 MPa increments to maintain stability. The pressure is monitored and held within ± 0.01 MPa. Temperature is controlled within ± 0.1 K using a thermocouple, and the mixture is stirred at 250 rpm to ensure uniformity. […] The pressure and temperature indicators are checked to ensure stability. After equilibration, the vessel is carefully depressurized to ambient conditions to halt dissolution without losing the sample. The remaining tablets are then removed and cleaned of residual CO2. If needed, they are dried in a desiccator. The undissolved drug is weighed using a high-precision balance. The experiment is replicated at least three times to calculate the mean solubility and standard deviation. The following formula was used to calculate the mass of dissolved rizatriptan:1
Include the molecular weights of rizatriptan ([…]) and CO2 (44.01 g/mol) in the mole fraction calculations.2 3 4 5
The measurements were conducted at four isotherms (308.2 K, 318.2 K, 328.2 K, and 338.2 K) and […] pressure points (12, 15, 18, 21, 24, 27, 30 MPa). Table 3 documents the experimental conditions, including temperature, pressure, SC-CO2 density, mole fraction, standard deviation, and solubility in grams per liter.

[2] = Preliminary tests of equilibration time for solubility in SC-CO2 (Table S1); assay type: physicochemical; conditions: supercritical CO2, 65 °C, organic solvent or mixture, thermodynamic from solid, read-out: Solubility (preliminary test)
Experimental: as §1
Table S1. Preliminary tests.

[3] = Enthalpies (total, vaporization, solvation) derived from density-based solubility models; assay type: physicochemical; conditions: SC-CO2
Experimental: This study thoroughly examines the solubility of rizatriptan in SC-CO2 for pharmaceutical processing by supercritical fluid technology. A series of experimental solubility measurements were conducted at a range of temperatures, from 308.2 to 338.2 K, and pressures ranging from 12 to 30 megapascals. Seven density-based models ( Chrastil, Bartle, K–J, Méndez–Santiago–Teja, Bian et al., and Sodeifian et al. (Ⅰ and Ⅱ)) and three equations of state (Peng–Robinson, Soave–Redlich–Kwong, and regular solution) were employed to analyze the resulting data. Additionally, the enthalpies of the total, vaporization, and solvation processes were derived to elucidate phase behavior.
This leads to the logarithmic relationship, where the enthalpy term combines solvation and vaporization effects
The Bartle model extends the concept by normalizing solubility with pressure and using a reduced density term, allowing direct estimation of the solute’s heat of vaporization from parameter. […] The MST model was derived from a Taylor expansion of the Helmholtz free energy near the solvent’s critical point, focusing on infinite dilution behavior. By incorporating the Clausius–Clapeyron equation for missing sublimation pressure data, it becomes a robust three-parameter tool. It excels in self-consistency checks, where plotting ) against density (ρ), should yield a single line for reliable data. […]

[4] = set-up: method as in PMID 36559181, doi:10.1007/s40005-015-0206-z, PMID 20582194, PMID 10551439; conditions: conventional oral tablets; cited from earlier work

## CN(C)CCc1c[nH]c2ccc(Cn3cncn3)cc12 [Rizatriptan, Rizatriptan benzoate]
[1]; supercritical CO2, T 308.0 K (text 308.2 K), P 12 MPa, ρCO2 768.52 kg/m^3
  solubility at 240 min: 61.6 µg/mL (≈ 229 µM)
[1]; supercritical CO2, T 308.0 K (text 308.2 K), P 15 MPa, ρCO2 816.10 kg/m^3
  solubility at 240 min: 88 µg/mL (≈ 327 µM)
[1]; supercritical CO2, T 308.0 K (text 308.2 K), P 18 MPa, ρCO2 816.10 kg/m^3
  solubility at 240 min: 107 µg/mL (≈ 396 µM)
[1]; supercritical CO2, T 308.0 K (text 308.2 K), P 21 MPa, ρCO2 874.55 kg/m^3
  solubility at 240 min: 138 µg/mL (≈ 512 µM)
[1]; supercritical CO2, T 308.0 K (text 308.2 K), P 24 MPa, ρCO2 895.66 kg/m^3
  solubility at 240 min: 181 µg/mL (≈ 672 µM)
[1]; supercritical CO2, T 308.0 K (text 308.2 K), P 27 MPa, ρCO2 913.70 kg/m^3
  solubility at 240 min: 210 µg/mL (≈ 779 µM)
[1]; supercritical CO2, T 308.0 K (text 308.2 K), P 30 MPa, ρCO2 929.85 kg/m^3
  solubility at 240 min: 237 µg/mL (≈ 878 µM)
[1]; supercritical CO2, T 318.0 K (text 318.2 K), P 12 MPa, ρCO2 659.80 kg/m^3
  solubility at 240 min: 40.6 µg/mL (≈ 151 µM)
[1]; supercritical CO2, T 318.0 K (text 318.2 K), P 15 MPa, ρCO2 743.83 kg/m^3
  solubility at 240 min: 83.5 µg/mL (≈ 310 µM)
[1]; supercritical CO2, T 318.0 K (text 318.2 K), P 18 MPa, ρCO2 790.29 kg/m^3
  solubility at 240 min: 114 µg/mL (≈ 423 µM)
[1]; supercritical CO2, T 318.0 K (text 318.2 K), P 21 MPa, ρCO2 823.80 kg/m^3
  solubility at 240 min: 158 µg/mL (≈ 585 µM)
[1]; supercritical CO2, T 318.0 K (text 318.2 K), P 24 MPa, ρCO2 850.15 kg/m^3
  solubility at 240 min: 213 µg/mL (≈ 790 µM)
[1]; supercritical CO2, T 318.0 K (text 318.2 K), P 27 MPa, ρCO2 872.14 kg/m^3
  solubility at 240 min: 250 µg/mL (≈ 928 µM)
[1]; supercritical CO2, T 318.0 K (text 318.2 K), P 30 MPa, ρCO2 890.90 kg/m^3
  solubility at 240 min: 269 µg/mL (≈ 998 µM)
[1]; supercritical CO2, T 328.0 K (text 328.2 K), P 12 MPa, ρCO2 506.75 kg/m^3
  solubility at 240 min: 20.4 µg/mL (≈ 75.7 µM)
[1]; supercritical CO2, T 328.0 K (text 328.2 K), P 15 MPa, ρCO2 654.94 kg/m^3
  solubility at 240 min: 57.8 µg/mL (≈ 215 µM)
[1]; supercritical CO2, T 328.0 K (text 328.2 K), P 18 MPa, ρCO2 724.13 kg/m^3
  solubility at 240 min: 114 µg/mL (≈ 421 µM)
[1]; supercritical CO2, T 328.0 K (text 328.2 K), P 21 MPa, ρCO2 768.74 kg/m^3
  solubility at 240 min: 165 µg/mL (≈ 613 µM)
[1]; supercritical CO2, T 328.0 K (text 328.2 K), P 24 MPa, ρCO2 801.92 kg/m^3
  solubility at 240 min: 216 µg/mL (≈ 800 µM)
[1]; supercritical CO2, T 328.0 K (text 328.2 K), P 27 MPa, ρCO2 828.51 kg/m^3
  solubility at 240 min: 260 µg/mL (≈ 966 µM)
[1]; supercritical CO2, T 328.0 K (text 328.2 K), P 30 MPa, ρCO2 850.83 kg/m^3
  solubility at 240 min: 288 µg/mL (≈ 1070 µM)
[1]; supercritical CO2, T 338.0 K (text 338.2 K), P 12 MPa, ρCO2 384.17 kg/m^3
  solubility at 240 min: 8.3 µg/mL (≈ 30.8 µM)
[1]; supercritical CO2, T 338.0 K (text 338.2 K), P 15 MPa, ρCO2 555.33 kg/m^3
  solubility at 240 min: 67.5 µg/mL (≈ 251 µM)
[1]; supercritical CO2, T 338.0 K (text 338.2 K), P 18 MPa, ρCO2 651.28 kg/m^3
  solubility at 240 min: 124 µg/mL (≈ 459 µM)
[1]; supercritical CO2, T 338.0 K (text 338.2 K), P 21 MPa, ρCO2 709.59 kg/m^3
  solubility at 240 min: 176 µg/mL (≈ 655 µM)
[1]; supercritical CO2, T 338.0 K (text 338.2 K), P 24 MPa, ρCO2 751.27 kg/m^3
  solubility at 240 min: 223 µg/mL (≈ 829 µM)
[1]; supercritical CO2, T 338.0 K (text 338.2 K), P 27 MPa, ρCO2 783.19 kg/m^3
  solubility at 240 min: 270 µg/mL (≈ 1000 µM)
[1]; supercritical CO2, T 338.0 K (text 338.2 K), P 30 MPa, ρCO2 809.68 kg/m^3
  solubility at 240 min: 302 µg/mL (≈ 1120 µM)
[2]; T 338, P 30, Time 60
  solubility at 60 min: 78.8 ± 0.7 µg/mL (≈ 293 µM)
[2]; T 338, P 30, Time 90
  solubility at 90 min: 167.6 ± 0.8 µg/mL (≈ 622 µM)
[2]; T 338, P 30, Time 120
  solubility at 120 min: 212.9 ± 0.8 µg/mL (≈ 790 µM)
[2]; T 338, P 30, Time 150
  solubility at 150 min: 279 ± 1.1 µg/mL (≈ 1040 µM)
[2]; T 338, P 30, Time 180
  solubility at 180 min: 285.8 ± 1.2 µg/mL (≈ 1060 µM)
[2]; T 338, P 30, Time 210
  solubility at 210 min: 301.8 ± 1.4 µg/mL (≈ 1120 µM)
[2]; T 338, P 30, Time 240
  solubility at 240 min: 301.8 ± 1.5 µg/mL (≈ 1120 µM)
[3]
  enthalpy of vaporization: 12.08 kcal/mol
  overall (total) enthalpy: 9.097 kcal/mol
[4]
  bioavailability: 40–45%
